Reference: US6545002B1 (University of Virginia Patent Foundation, priority 1999, dated 2003)
Read-outs that look alike come from different tables or passages of the source.

How the values were obtained:
[1] = molecular target: T1, recombinant human A1 receptors (hA1) (Homo sapiens, UniProt P30542); test: Radioligand binding ([3H]CPX) at recombinant human A1 receptors in HEK-293 cells
T1 sequence (P30542 1-326): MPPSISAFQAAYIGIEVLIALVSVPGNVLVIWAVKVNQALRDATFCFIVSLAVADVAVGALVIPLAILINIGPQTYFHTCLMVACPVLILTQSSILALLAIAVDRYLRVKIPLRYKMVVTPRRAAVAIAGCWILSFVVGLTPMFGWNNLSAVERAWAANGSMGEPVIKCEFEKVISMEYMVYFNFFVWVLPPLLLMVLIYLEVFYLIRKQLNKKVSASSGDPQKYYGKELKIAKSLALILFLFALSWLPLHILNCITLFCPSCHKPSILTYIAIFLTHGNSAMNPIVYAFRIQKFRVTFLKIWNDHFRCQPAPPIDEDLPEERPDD
Description: The potency of the xanthine derivatives at human A2B receptors was evaluated using two binding assays. […] In order to determine selectivity, the xanthines were evaluated using standard binding assays at A1, A2A, and A3 receptors.

[2] = molecular target: recombinant human A2A receptors (hA2A) (Homo sapiens, UniProt P29274); test: Radioligand binding (125I-ZM241385) at recombinant human A2A receptors in HEK-293 cells
Sequence of recombinant human A2A receptors (hA2A) (P29274 whole entry): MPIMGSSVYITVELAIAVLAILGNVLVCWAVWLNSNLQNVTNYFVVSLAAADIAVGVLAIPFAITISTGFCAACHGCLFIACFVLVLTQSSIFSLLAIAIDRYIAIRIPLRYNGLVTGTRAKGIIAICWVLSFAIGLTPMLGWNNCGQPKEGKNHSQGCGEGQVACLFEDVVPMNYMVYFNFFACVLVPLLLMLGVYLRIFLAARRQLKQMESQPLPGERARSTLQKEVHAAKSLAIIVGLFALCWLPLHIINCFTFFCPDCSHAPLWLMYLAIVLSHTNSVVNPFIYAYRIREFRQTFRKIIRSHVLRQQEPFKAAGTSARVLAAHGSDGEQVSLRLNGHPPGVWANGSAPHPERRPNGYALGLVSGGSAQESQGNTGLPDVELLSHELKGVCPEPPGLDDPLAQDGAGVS

[3] = molecular target: T2, human A2B receptors (hA2B) (Homo sapiens, UniProt P29275); test: Radioligand binding ([125I]ABOPX / [3H]ZM241385) at human A2B receptors expressed in HEK-293 cells; details: for rA1/hA2B: Ki ratio
T2 construct: expressed in transfected cells; host or cells: HEK-293 (HEK-A2B, G418-selected)
T2 sequence (P29275 1-332): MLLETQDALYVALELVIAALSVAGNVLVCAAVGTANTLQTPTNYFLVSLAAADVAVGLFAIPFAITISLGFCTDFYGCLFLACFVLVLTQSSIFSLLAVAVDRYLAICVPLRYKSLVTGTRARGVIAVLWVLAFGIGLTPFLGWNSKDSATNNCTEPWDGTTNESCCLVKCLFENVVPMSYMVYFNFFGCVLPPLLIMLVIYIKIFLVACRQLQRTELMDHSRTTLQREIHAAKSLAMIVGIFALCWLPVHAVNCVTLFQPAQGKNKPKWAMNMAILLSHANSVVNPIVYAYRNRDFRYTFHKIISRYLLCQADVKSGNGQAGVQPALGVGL

[4] = molecular target: T3, rat A2A receptors (rA2A) (Rattus norvegicus, UniProt P30543); test: Displacement of [3H]CGS 21680 binding in rat striatal membranes
T3 construct: to A2A receptors from rat striatal membranes was performed as described; from tissue; host or cells: rat striatal membranes
T3 sequence (P30543 whole entry): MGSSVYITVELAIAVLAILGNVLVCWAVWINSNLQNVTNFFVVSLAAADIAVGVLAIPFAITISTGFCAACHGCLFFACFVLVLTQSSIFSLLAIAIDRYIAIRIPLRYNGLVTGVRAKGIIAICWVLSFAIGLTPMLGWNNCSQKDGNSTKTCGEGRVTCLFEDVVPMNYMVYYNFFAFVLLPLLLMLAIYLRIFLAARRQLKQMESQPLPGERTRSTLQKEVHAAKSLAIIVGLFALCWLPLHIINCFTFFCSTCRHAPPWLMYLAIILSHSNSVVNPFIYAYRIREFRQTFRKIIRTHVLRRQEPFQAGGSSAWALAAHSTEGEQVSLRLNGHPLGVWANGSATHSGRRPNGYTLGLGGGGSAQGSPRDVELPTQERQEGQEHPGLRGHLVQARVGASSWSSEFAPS
Description: (§1) Bruns, R. F. et al., Naunyn-Schmiedeberg's Arch. […] Binding of [^3H]R-N^6-phenylisopropyladenosine. Schwabe, U. et al., Naunyn-Schmiedeberg's Arch. […] (Dupont NEN, Boston, Mass.) to A2A receptors from rat striatal membranes was performed as described. […] All non-radioactive compounds were initially dissolved in DMSO, and diluted with buffer to the final concentration, where the amount of DMSO never exceeded 2%. Incubations were terminated by rapid filtration over Whatman GF/B filters, using a Brandell cell harvester (Brandell, Gaithersburg, Md.). The tubes were rinsed three times with 3 mL buffer each.
(§2) At least six different concentrations of competitor, spanning 3 orders of magnitude adjusted appropriately for the IC50 of each compound, were used. IC50 values, calculated with the nonlinear regression method implemented in (Graph-Pad Prism, San Diego, Calif.), were converted to apparent Ki values as described. Linden, J., J. Cycl. Nucl.

[5] = molecular target: T4, human A3 receptors (hA3) (Homo sapiens, UniProt P0DMS8); test: Displacement of [125I]ABA binding at human A3 receptors expressed in HEK-293 cells
T4 construct: expressed in transfected cells; host or cells: HEK-293
T4 sequence (P0DMS8 1-318): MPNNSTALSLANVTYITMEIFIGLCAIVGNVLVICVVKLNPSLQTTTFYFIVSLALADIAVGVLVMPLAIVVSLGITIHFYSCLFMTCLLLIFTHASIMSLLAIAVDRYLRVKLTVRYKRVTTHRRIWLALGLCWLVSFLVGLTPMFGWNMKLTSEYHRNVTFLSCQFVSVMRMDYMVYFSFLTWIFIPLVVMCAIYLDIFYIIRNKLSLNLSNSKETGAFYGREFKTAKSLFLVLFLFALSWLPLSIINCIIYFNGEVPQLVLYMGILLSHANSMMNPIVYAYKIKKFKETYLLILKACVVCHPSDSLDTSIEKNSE

[6] = molecular target: T5, rat A1 receptors (rA1) (Rattus norvegicus, UniProt P25099); test: Displacement of [3H]R-PIA binding in rat brain (cerebral cortical) membranes
T5 construct: to A1 receptors from rat cerebral cortical membranes; from tissue; host or cells: rat cerebral cortical (brain) membranes
T5 sequence (P25099 1-326): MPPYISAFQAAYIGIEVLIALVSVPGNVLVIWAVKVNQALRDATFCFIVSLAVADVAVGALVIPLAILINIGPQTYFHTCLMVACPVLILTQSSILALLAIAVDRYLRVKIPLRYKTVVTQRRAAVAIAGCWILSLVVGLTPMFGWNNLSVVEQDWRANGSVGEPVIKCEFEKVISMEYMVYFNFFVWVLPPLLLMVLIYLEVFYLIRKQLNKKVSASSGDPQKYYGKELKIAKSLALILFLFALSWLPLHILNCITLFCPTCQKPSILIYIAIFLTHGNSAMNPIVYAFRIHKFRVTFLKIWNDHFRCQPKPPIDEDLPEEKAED
Description: as §1, §2

[7] = read-out: hA1 Ki or IC50, Table 2
[8] = read-out: hA2A Ki or IC50, Table 2
[9] = Table 2, read-out: hA2B Ki or IC50
[10] = Table 2, read-out: rA2A Ki or IC50
[11] = Table 2, read-out: hA3 Ki or IC50
[12] = Table 2, read-out: rA1 Ki or IC50
[13] = read-out: hA1 Ki, values marked (h)^a, Table 4, vs [3H]CPX, HEK-293
[14] = read-out: hA2A Ki, values marked (h)^a, Table 4, vs [125I]ZM241385, HEK-293
[15] = Table 4, footnote a: [125I]-ABOPX, read-out: hA2B Ki (value marked ^a) (converted)
[16] = Table 4, unmarked value, first of two binding assays, read-out: hA2B Ki
[17] = Table 4, footnote a: [125I]ABA, read-out: hA3 Ki (value marked ^a)

## CCCn1c(=O)c2[nH]c(-c3ccc(C=CC(=O)O)cc3)nc2n(CCC)c1=O [Compound 8]
[1]; read-out: hA1 Ki, values marked (h), Table 1, recombinant human A1, HEK 293
  Ki: 0.14 ± 0.003 µM
[2]; read-out: hA2A Ki, values marked (h), Table 1, recombinant human A2A, HEK 293
  Ki: 0.19 ± 0.071 µM
[3]; Table 1, [125I]ABOPX, HEK-293, read-out: hA2B Ki or IC50
  Ki: 0.06 ± 0.002 µM
[4]; Table 1, [3H]CGS 21680, rat striatal membranes, read-out: rA2A Ki or IC50
  Ki: 0.8 µM
[5]; Table 1, [125I]ABA, HEK-293, read-out: hA3 Ki or IC50
  Ki: 0.03 ± 0.014 µM

## CCCn1c(=O)c2[nH]c(-c3ccc(OCC(=O)Nc4ccccc4)cc3)nc2n(CCC)c1=O [Compound 12, 8-[4-[(Phenylcarbamoylmethyl)oxy]phenyl]-1,3-di-(n-propyl)-xanthine]
[1]; [7]
  Ki: 0.0401 ± 0.0051 µM
other
  melting point: 301 to 302 °C
[2]; [8]
  Ki: 0.0258 ± 0.0045 µM
[3]; [9]
  Ki: 0.00148 ± 0.00063 µM
[4]; [10]
  Ki: 0.0456 ± 0.0014 µM
[5]; [11]
  Ki: 0.137 ± 0.054 µM

## CCCn1c(=O)c2[nH]c(-c3ccc(OCC(=O)NCc4ccccc4)cc3)nc2n(CCC)c1=O [Compound 13, 8-[4-[(Benzylcarbamoylmethyl)oxy]phenyl]-1,3-di-(n-propyl)-xanthine]
[1]; [7]
  Ki: 0.0547 ± 0.0212 µM
other
  melting point: 268 °C
[6]; [12]
  Ki: 0.00502 ± 0.00055 µM
[2]; read-out: hA2A Ki or IC50
  Ki: 0.0238 ± 0.00571 µM
[4]; read-out: rA2A Ki or IC50
  Ki: 0.0259 ± 0.0076 µM
[5]; [11]
  Ki: 0.0792 ± 0.0178 µM

## CCCn1c(=O)c2[nH]c(-c3ccc(OCC(=O)N(Cc4ccccc4)Cc4ccccc4)cc3)nc2n(CCC)c1=O [Compound 15, 8-[4-[(Dibenzylcarbamoylmethyl)oxy]phenyl]-1,3-di-(n-propyl)-xanthine]
[1]; [7]
  Ki: 0.69 ± 0.098 µM
other
  melting point: 230 °C
[6]; [12]
  Ki: 0.167 ± 0.049 µM
[2]; [8]
  Ki: 0.642 ± 0.198 µM
[3]; [9]
  Ki: 0.00988 ± 0.00105 µM
[4]; [10]
  Ki: 2.75 µM
[5]; [11]
  Ki: 0.284 ± 0.014 µM

## CCCn1c(=O)c2[nH]c(-c3ccc(OCC(=O)Nc4ccccc4C(C)=O)cc3)nc2n(CCC)c1=O [Compound 18, 8-[4-[((2-Acetylphenyl)carbamoylmethyl)oxy]phenyl]-1,3-di-(n-propyl)xanthine]
[1]; [7]
  Ki: 0.335 ± 0.064 µM
other
  melting point: 294 °C
[6]; [12]
  Ki: 0.0279 ± 0.0016 µM
[2]; [8]
  Ki: 0.431 ± 0.176 µM
[3]
  selectivity for human A2B versus human A1 receptors: 120 fold
  selectivity for human A2B versus human A2A receptors: 160 fold
  selectivity for human A2B versus human A3 receptors: 23 fold
  selectivity for human A2B versus rat A1 receptors: 10 fold
  selectivity for human A2B versus rat A2A receptors: 160 fold
[3]; [9]
  Ki: 0.00274 ± 0.00101 µM
[4]; [10]
  Ki: 0.434 ± 0.129 µM
[5]; [11]
  Ki: 0.0619 ± 0.0034 µM

## CCCn1c(=O)c2[nH]c(-c3ccc(OCC(=O)Nc4cccc(C(C)=O)c4)cc3)nc2n(CCC)c1=O [Compound 19, 8-[4-[((3-Acetylphenyl)carbamoylmethyl)oxy]phenyl]-1,3-di-(n-propyl)xanthine]
[1]; [7]
  Ki: 0.234 ± 0.028 µM
other
  melting point: 269 to 270 °C
[6]; [12]
  Ki: 0.439 ± 0.111 µM
[2]; [8]
  Ki: 0.0589 ± 0.0071 µM
[3]; [9]
  Ki: 0.00492 ± 0.00055 µM
[4]; [10]
  Ki: 0.949 ± 0.394 µM
[5]; [11]
  Ki: 0.352 ± 0.069 µM

## CCCn1c(=O)c2[nH]c(-c3ccc(OCC(=O)Nc4ccc(C(C)=O)cc4)cc3)nc2n(CCC)c1=O [Compound 20, 8-[4-[((4-Acetylphenyl)carbamoylmethyl)oxy]phenyl]-1,3-di-(n-propyl)xanthine]
[1]; [7]
  Ki: 0.157 ± 0.008 µM
[6]; [12]
  Ki: 0.0376 ± 0.004 µM
[2]; [8]
  Ki: 0.112 ± 0.037 µM
[3]
  selectivity for human A2B versus rat A1 receptors: 27 fold
[3]; [9]
  Ki: 0.00139 ± 0.0003 µM
[4]; [10]
  Ki: 0.548 ± 0.183 µM
[5]; [11]
  Ki: 0.23 ± 0.023 µM

## CCCn1c(=O)c2[nH]c(-c3ccc(/C=C/C(=O)Nc4ccccc4C(C)=O)cc3)nc2n(CCC)c1=O [Compound 35, 8-[4(2-(2-Acetylphenyl)carbamoyl-trans-vinyl)phenyl]-1,3-di-(n-propyl)xanthine]
other
  melting point: 281 to 283 °C
[6]; Table 3, read-out: rA1 Ki or IC50
  Ki: 0.00767 ± 0.0022 µM
[3]; Table 3, read-out: hA2B Ki or IC50
  Ki: 0.00365 ± 0.00098 µM
[4]; Table 3, read-out: rA2A Ki or IC50
  Ki: 0.143 ± 0.05 µM
[5]; Table 3, read-out: hA3 Ki or IC50
  Ki: 0.121 ± 0.138 µM

## CCCn1c(=O)c2[nH]c(-c3ccc(OCC(=O)NNC(C)=O)cc3)nc2n(CCC)c1=O [Compound 41, 8-[4-[(Carboxymethyl)oxy]phenyl]-1,3-di-(n-propyl)xanthine N-Acetylhydrazide]
[1]; [13]
  Ki: 0.125 ± 0.014 µM
[6]; Table 4, read-out: rA1 Ki
  Ki: 0.00651 ± 0.00124 µM
[2]; [14]
  Ki: 0.186 ± 0.009 µM
[3]; Table 4
  rA1/hA2B: 0.10
[3]; [15]
  Ki: 0.0338 ± 0.0137 µM
[3]; [16]
  Ki: 0.0654 ± 0.0065 µM
[4]; Table 4, read-out: rA2A Ki
  Ki: 0.227 ± 0.064 µM
[5]; [17]
  Ki: 0.0309 ± 0.0082 µM

## CCCn1c(=O)[nH]c(=O)c2[nH]c(-c3ccc(OCC(=O)NN4C(=O)C(C)=C(C)C4=O)cc3)nc21 [Compound 48]
[1]; [13]
  Ki: 8.08 µM
[6]; Table 4, read-out: rA1 Ki
  Ki: 3.59 ± 0.92 µM
[2]; [14]
  Ki: 5.48 µM
[3]; Table 4
  rA1/hA2B: 2.0
[3]; [15]
  Ki: 1.9 µM
[3]; [16]
  Ki: 1.8 µM
[4]; Table 4, at 100,000 nM
  rA2A % displacement of specific binding: 36 ± 4%
[5]; [17]
  Ki: 14.2 µM

## CCCn1c(=O)c2[nH]c(-c3ccc(OCC(=O)NN4C(=O)c5ccccc5C4=O)cc3)nc2n(CCC)c1=O [Compound 57, 8-[4-[(Carboxymethyl)oxy]phenyl]-1,3-di-(n-propyl)xanthine N,N-Phthaloylhydrazide]
[1]; [13]
  Ki: 0.21 µM
[6]; Table 4, read-out: rA1 Ki
  Ki: 0.0263 ± 0.0023 µM
[2]; [14]
  Ki: 0.359 µM
[3]; Table 4
  rA1/hA2B: 0.41
[3]; [15]
  Ki: 0.0464 µM
[3]; [16]
  Ki: 0.0644 ± 0.0008 µM
[4]; Table 4, read-out: rA2A Ki
  Ki: 0.392 ± 0.117 µM
[5]; [17]
  Ki: 0.147 ± 0.021 µM
